Where two headings read alike, the source gives them in different places.
Experiments:
[1] = biological target: T1, human recombinant AhR protein (Homo sapiens, UniProt P35869); test: Microscale thermophoresis (MST) binding to AhR protein
T1 sequence (P35869 128-399): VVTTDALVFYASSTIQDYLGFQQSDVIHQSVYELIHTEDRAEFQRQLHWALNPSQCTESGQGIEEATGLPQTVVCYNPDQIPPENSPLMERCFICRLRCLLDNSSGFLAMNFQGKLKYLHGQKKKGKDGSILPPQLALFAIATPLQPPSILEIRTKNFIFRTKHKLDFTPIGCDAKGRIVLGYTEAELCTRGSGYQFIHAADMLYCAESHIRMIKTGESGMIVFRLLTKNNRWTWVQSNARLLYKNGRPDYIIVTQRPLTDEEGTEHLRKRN

P. aeruginosa PAO1 = type: cell-based, Pseudomonas aeruginosa
[2] = tested on: P. aeruginosa pqs QS system (pqsA-gfp); type: cell-based, Pseudomonas aeruginosa
AHRR = test: qRT-PCR of AhR downstream gene AHRR in THP-1 cells; type: cell-based, human; conditions: for AHRR expression change in THP-1 AhR KD cells: THP-1 AhR-Knockdown (KD) cells; for AHRR transcription promoted: vs DMSO, increase
CYP1B1 = test: qRT-PCR of AhR downstream gene CYP1B1 in THP-1 cells; conditions: for CYP1B1 expression change in THP-1 AhR KD cells: THP-1 AhR-Knockdown (KD) cells
[3] = tested on: P. aeruginosa PAO1 proteome; type: cell-based, Pseudomonas aeruginosa; conditions: Bac_Pht vs Bac
[4] = tested on: P. aeruginosa PAO1 pyocyanin production; test: Pyocyanin quantification assay; type: cell-based, Pseudomonas aeruginosa
[5] = tested on: P. aeruginosa PAO1 biofilm formation; test: Biofilm formation assay (crystal violet staining); type: cell-based, Pseudomonas aeruginosa
[6] = biological target: PqsR binding to the pqsA promoter (Pseudomonas aeruginosa, UniProt Q9I4X0); test: Electrophoretic mobility shift assay (EMSA) with biotinylated pqsA promoter and cell lysates; type: biochemical; conditions: PAO1 WT cell lysates
PqsR binding to the pqsA promoter, sequence (Q9I4X0 whole entry): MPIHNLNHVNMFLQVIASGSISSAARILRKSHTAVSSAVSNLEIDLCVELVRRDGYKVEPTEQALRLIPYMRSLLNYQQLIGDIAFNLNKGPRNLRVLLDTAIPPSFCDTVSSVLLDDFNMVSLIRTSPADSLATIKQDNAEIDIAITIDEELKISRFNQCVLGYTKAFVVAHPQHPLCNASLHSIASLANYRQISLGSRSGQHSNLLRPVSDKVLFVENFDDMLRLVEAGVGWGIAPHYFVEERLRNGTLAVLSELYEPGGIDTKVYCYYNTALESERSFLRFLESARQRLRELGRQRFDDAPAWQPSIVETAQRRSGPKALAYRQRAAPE

P.aeruginosa = tested on: P.aeruginosa; set-up: method as in Shinde and Wadekar, 2018; conditions: due to metal ion chelating capacity; ref Shinde and Wadekar, 2018; cited from earlier work
[7] = tested on: P. aeruginosa pqs QS system (pqsA-gfp); type: cell-based, Pseudomonas aeruginosa; remark: listed apart in the source
[8] = tested on: P. aeruginosa rhamnolipid productions; type: cell-based, Pseudomonas aeruginosa; conditions: Supplementary Figure 1
[9] = 10 μM, THP-1 human monocytes, 24 h, vs DMSO alone, repression
[10] = 10 μM, THP-1 human monocytes, 24 h

| Structure (SMILES) | Kd [1] [nM] | effect on growth of P. aeruginosa (P. aeruginosa PAO1) | induction of pqsA-gfp expression [2] | AHRR expression change in THP-1 AhR KD cells (AHRR) | CYP1B1 expression change in THP-1 AhR KD cells (CYP1B1) | AHRR transcription promoted (AHRR; [10]) [fold] | inhibition of pqsA-gfp expression [7] | further results |
| --- | --- | --- | --- | --- | --- | --- | --- | --- |
| CCCCCCCc1[nH]c2ccccc2c(=O)c1O [PQS, 2-heptyl-3-hydroxy-4 (1H)-quinolone] | 3750 | could not affect the growth | induced the pqsA-gfp expression in a dose-dependent manner | no significant expression changes | no significant expression changes | – | – | AHRR transcription repressed (AHRR; [9]): 2.5 fold; CYP1B1 transcription repressed (CYP1B1; [9]): 2.3 fold |
| CC1=C(O)C(=O)c2ccccc2C1=O [Pht, 2-hydroxy-3-methyl-1,4-naphthoquinone] | 474 | could not affect the growth | not | – | – | 1.9 | inhibit pqsA-gfp expression in a dose-dependent manner | FC(group2_group1) ([3]; PA1768, Zn_protease domain-containing protein, pValue 0.168581, Sig 0): 0.5758; FC(group2_group1) ([3]; PA4677, Dipeptidase, pValue 0.361511, Sig 0): 0.5653; FC(group2_group1) ([3]; PA5194, acidPPc domain-containing protein, pValue 0.333715, Sig 0): 0.5551; FC(group2_group1) ([3]; PA5195, Heat shock protein 15, pValue 0.131054, Sig 0): 0.3354; FC(group2_group1) ([3]; PA5437, Probable transcriptional regulator, pValue 0.358265, Sig 0): 0.4217; pyocyanin production [4]: suppressed by Pht to a level comparable to that of PAO1 ΔlasIΔrhlI strain and the ΔpqsC strain; biofilm formation [5]: suppressed by Pht to a level comparable to that of the PAO1 ΔlasIΔrhlI and the ΔpqsC strains; effect on binding of PqsR (PAO1 cell lysates) to Bio-pqsA promoter [6]: attenuated the interaction between PAO1 cell lysates and Bio-pqsA; anti-P.aeruginosa activity (P.aeruginosa): moderate; optimal concentration for inhibition of pqsA-gfp expression ([7]; PAO1 PpqsA-gfp strain): 750 nM; rhamnolipid production [8]: did not inhibit; CYP1B1 transcription promoted (CYP1B1; 10 μM, THP-1 human monocytes, 24 h, vs DMSO, increase): 2.2 fold |
| CC1=C(C/C=C(\C)CCC[C@H](C)CCC[C@H](C)CCCC(C)C)C(=O)c2ccccc2C1=O [Vitamin K1, Phylloquinone] | 1990 | without affecting growth | – | no change | no change | 1.6 | inhibit pqsA-gfp expression dose-dependently | – |
| CC(C)=CCC/C(C)=C/CC/C(C)=C/CC/C(C)=C/CC1=C(C)C(=O)c2ccccc2C1=O [Vitamin K2, Menaquinones] | 586 | without affecting growth | – | – | – | – | inhibit pqsA-gfp expression dose-dependently | – |
| CC1=CC(=O)c2ccccc2C1=O [Vitamin K3, Menadione] | 2170 | without affecting growth | – | – | – | – | inhibit pqsA-gfp expression dose-dependently | – |

Reference: PMC9515472, “The AhR ligand phthiocol and vitamin K analogs as Pseudomonas aeruginosa quorum sensing inhibitors” (Frontiers in Microbiology, 2022)
